Experimental data taken from patent US20240398824A1, “Inhibition Of Rip Kinases For Treating Neurodegenerative Disorders” (The Johns Hopkins University, priority 2018, published 2024).

How the values were obtained:
primary cortical neurons = assay: Neuronal toxicity of astrocyte conditioned medium (AlamarBlue and LDH assays); type: cell-based, mouse; details: cortical neurons 24 h with ACM, in words
Experimental: Primary neuron, microglia and astrocyte cell cultures, and α-synuclein PFE's treatment: NOD2 or RIPK2 knockout mice was obtained from Jackson Laboratories (Bar Harbor, ME, USA). Primary cortical neurons were prepared from embryonic day 15.5 pups and cultured in Neurobasal medium (Gibco) supplemented with B-27, 0.5 mM L-glutamine, penicillin and streptomycin (Invitrogen, Grand Island, NY, USA) on tissue-culture plates coated with poly-L-lysine. The neurons were maintained by changing the medium every 3-4 days. Primary microglial and astrocyte cultures were performed as described previously (PMID: 26157004). Whole brains from mouse pups at postnatal day 1 (P1) were obtained. […] The total protein concentration was determined using Pierce BCA protein assay kit (Thermo Scientific), and 15 or 50 μg ml^-1 of total protein was added to mouse primary neurons for the neuronal cell death assay. […] Cell viability was determined by two methods: The AlamarBlue (Invitrogen) and LDH assay (Sigma). Cell death was assessed through AlamarBlue assay, according to the manufacturer's protocol. LDH activity in culture medium, representing relative cell viability and membrane integrity, was measured using the LDH assay kit spectrophotometrically, following the manufacturer's instructions. […]

[1] = system: primary microglia activated with α-synuclein PFFs; assay: qPCR of A1 astrocyte inducers (TNFα, IL-1α, C1q) in primary microglia activated with α-synuclein PFFs; type: cell-based, mouse; details: inhibitor 10 μM 30 min, then α-synuclein PFFs 1 μg/mL 4 h; in words
Experimental: α-synuclein purification and α-synuclein PFFs preparation: Recombinant mouse α-synuclein proteins were purified as previously described with an IPTG-independent inducible pRK172 vector system (Nat Protoc. 9(9): 2135-46 (2014)). Endotoxin was depleted by ToxinEraser endotoxin removal kit (Genscript, NJ, USA). α-synuclein PFFs (5 mg ml^−1) was prepared in PBS while stirring with a magnetic stirrer (1,000 rpm at 37° C.). After a week of incubation of the α-synuclein protein, aggregates were diluted to 0.1 mg ml^−1 with PBS and sonicated for 30 s (0.5 s pulse on/off) at 10% amplitude (Branson Digital sonifier, Danbury, CT, USA). α-synuclein PFFs was validated using atomic force microscopy and transmission electron microscopy, and the ability to induce phospho-serine 129 α-synuclein (p-α-synSer129) was confirmed using immunostaining. α-synuclein PFFs was stored at −80° C. until use. […]
Comparative qPCR: The total RNA from cultured cells was extracted with RNA isolation kit (Qiagen, CA) following the instruction provided by the company. RNA concentration was measured spectrophotometrically using NanoDrop 2000 ([…]). […] The expression levels of targeted genes were normalized to the expression of β-actin and calculated based on the comparative cycle threshold Ct method (2-ΔΔCt).

| Structure (SMILES) | neuronal cell death induced by neurotoxic astrocytes (primary cortical neurons) | release of A1 astrocyte inducer (TNFα, IL-1α, C1q) from microglia [1] |
| --- | --- | --- |
| CC(C)(C)S(=O)(=O)c1ccc2nccc(Nc3n[nH]c4ccc(F)cc34)c2c1 [GSK583, 6-(tert-butylsulfonyl)-N-(5-fluoro-1H-indazol-3-yl) quinolin-4-amine] | significantly prevented neuronal cell death | significantly suppress |
| COc1cc2ncnc(Nc3ccc(F)c(Cl)c3)c2cc1OCCCN1CCOCC1 [Gefitinib] | significantly prevented neuronal cell death | significantly suppress |
